The record followed here is ChEMBL document CHEMBL1145623, “Structure-activity relationships of anthranilamide-based factor Xa inhibitors containing piperidinone and pyridinone P4 moieties” (Bioorg Med Chem Lett, 2008).

The nature of data set [1]: Solubility in potassium phosphate buffer at pH 6.5 by thermodynamic equilibrium aqueous solubility assay. It is filed as physicochemical.
Data set [2] deals with Canis familiaris. Description: Clearance in dog at 0.02 to 0.5 mg/kg, iv and po. Also noted: dose 0.02-0.5 mg/kg, route oral. The settings on record: in vivo. It is filed as ADME, organism-based, Canis lupus familiaris.
Data set [3] is described as follows: Half life in dog at 0.02 to 0.5 mg/kg, po. It is filed as ADME, organism-based, Canis lupus familiaris. Also noted: dose 0.02-0.5 mg/kg, route oral. The settings on record: in vivo.
Data set [4] has as its system Canis familiaris. In words: Volume of distribution at steady state in dog at 0.02 to 0.5 mg/kg, iv and po. The note with it: in vivo. Also noted: dose 0.02-0.5 mg/kg, route oral. It is filed as ADME, organism-based, Canis lupus familiaris.
Data set [5] is described as follows: Bioavailability in dog at 0.02 to 0.5 mg/kg, po. Format: ADME, organism-based, Canis lupus familiaris. The note with it: in vivo.

Values after ≈ are worked out from the molar mass of the structure shown.

`COc1cc(Cl)cc(C(=O)Nc2ccc(Cl)cn2)c1NC(=O)c1ccc(N2CCCCC2=O)cc1`: the thermodynamic solubility (commonly the concentration in solution at equilibrium with solid) in data set [1] turned out to be 19 µg/mL (≈ 37 µM). The CL in data set [2] came out at 12 mL/min/kg. Besides, the half-life – broadly, the time needed for the level to fall by half in the phase considered – in data set [3] was 1.5 h. The Vdss in data set [4] is 1.3 L/kg. Moreover, in data set [5], the bioavailability (as a rule, dose-corrected exposure relative to a reference, in per cent) was 44%.
With `COc1cc(Cl)cc(C(=O)Nc2ccc(Cl)cn2)c1NC(=O)c1ccc(-n2ccccc2=O)cc1F`, in data set [2], the CL turned out to be 13 mL/min/kg. In addition, in data set [3], the half-life is 0.7 h. In data set [4], this compound yielded a Vdss of 2.6 L/kg. The same compound had a bioavailability in data set [5] of 18%.
For `COc1cc(Cl)cc(C(=O)Nc2ccc(Cl)cn2)c1NC(=O)c1ccc(-n2ccccc2=O)nc1`, the CL in data set [2] came out at 5 mL/min/kg. In data set [3], this compound had a half-life of 1.6 h. This compound had a Vdss in data set [4] of 0.81 L/kg. For the same compound, the bioavailability in data set [5] turned out to be 74%.
`CN(C)CCOc1cc(Cl)cc(C(=O)Nc2ccc(Cl)cn2)c1NC(=O)c1ccc(N2CCCCC2=O)cc1`: the thermodynamic solubility in data set [1] was determined as 912 µg/mL (≈ 1600 µM).
As to `COc1cc(Cl)cc(C(=O)Nc2ccc(Cl)cn2)c1NC(=O)c1ccc(-n2ccccc2=O)cc1`, the CL in data set [2] was 11.2 mL/min/kg. This compound gave a half-life in data set [3] of 0.7 h. Also, in data set [4], the Vdss amounted to 0.62 L/kg. Also, the bioavailability in data set [5] was 99%.
Consider `COc1ccc(-n2nc(C(N)=O)c3c2C(=O)N(c2ccc(N4CCCCC4=O)cc2)CC3)cc1` [APIXABAN], for which the CL in data set [2] amounted to 0.33 mL/min/kg. The same compound had a half-life in data set [3] of 5.8 h. Also, the Vdss in data set [4] was 0.2 L/kg.
